Measurements: patent publication US20060069132A1, “Azolecarboxamide herbicides” (priority 2004, published 2006)

Tests used:
[1] = test system: Surinam grass; test: Test B pre-/postemergence herbicide test; type: in vivo, Urochloa decumbens
Outline: (§1)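 Herbicidal effect was judged by eye on a 0–100 scale after plants stood 13 to 15 days in the greenhouse following pre- or postemergence treatment with surfactant-containing formulations.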

[2] = test system: cocklebur; test: Test B pre-/postemergence herbicide test; type: in vivo, Xanthium strumarium
Outline: (§2)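 Response was scored visually 13 to 15 days after treatment against untreated greenhouse controls, 0 meaning no effect and 100 complete control. Formulations (solvent mixture plus surfactant) went onto soil after planting, onto foliage of 1- to 4-leaf plants, and onto 2-leaf plants in a flooded paddy set including rice and barnyardgrass.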

[3] = test system: corn; test: Test B pre-/postemergence herbicide test; type: in vivo, Zea mays
Outline: as §1

[4] = test system: giant foxtail; test: Test B pre-/postemergence herbicide test; type: in vivo, Setaria faberi
Outline: as §1

[5] = test system: lambsquarters; test: Test B pre-/postemergence herbicide test; type: in vivo, Chenopodium album
Outline: as §1

[6] = test system: morningglory; test: Test B pre-/postemergence herbicide test; type: in vivo, Ipomoea coccinea
Outline: as §2

[7] = test system: pigweed; test: Test B pre-/postemergence herbicide test; type: in vivo, Amaranthus retroflexus
Outline: as §1

[8] = test system: velvetleaf; test: Test B pre-/postemergence herbicide test; type: in vivo, Abutilon theophrasti
Outline: as §1

[9] = test system: blackgrass; test: Test B postemergence herbicide test; type: in vivo, Alopecurus myosuroides
Outline: (§3)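 Visual control ratings, 0–100 versus untreated controls, taken after 13 to 15 days in the greenhouse. Blackgrass received a postemergence spray at the 1- to 4-leaf stage (2–18 cm); ducksalad, umbrella sedge and barnyardgrass were flooded-paddy treated at 2 leaves.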

[10] = test system: wheat; test: Test B postemergence herbicide test; type: in vivo, Triticum aestivum; set-up: key to Wheat plant response rating: 0 = no effect, 100 = complete control
Outline: (§4)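 Plants grow to 1- to 4-leaf stage (2–18 cm) for postemergence spraying, or to 2-leaf stage for the paddy test. Formulated compound is applied. Greenhouse holding lasts 13–15 days. Response is scored visually relative to controls, 0 no effect to 100 complete control; a dash means no result.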

[11] = test system: wild oat; test: Test B postemergence herbicide test; type: in vivo, Avena fatua
Outline: as §4

[12] = test system: rice; test: Test B flooded paddy test; type: in vivo, Oryza sativa; conditions: 1000 g ai/ha, scale 0 to 100 (0 no effect, 100 complete control)
Outline: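 Treated at 2-leaf (paddy) or 1–4-leaf, 2–18 cm (postemergence); greenhouse 13–15 d; visual score vs control, 0 none to 100 complete control; dash = not tested.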

[13] = test system: small flower umbrella sedge; test: Test B flooded paddy test; type: in vivo, Cyperus difformis; conditions: 1000 g ai/ha, scale 0 to 100 (0 no effect, 100 complete control)
Outline: as §3

[14] = test system: ducksalad; test: Test B flooded paddy test; type: in vivo, Heteranthera limosa; conditions: 1000 g ai/ha, scale 0 to 100 (0 no effect, 100 complete control)
Outline: as §3

[15] = test system: barnyardgrass; test: Test B flooded paddy test; type: in vivo, Echinochloa crus-galli; conditions: 1000 g ai/ha, scale 0 to 100 (0 no effect, 100 complete control)
Outline: as §3

[16] = Postemergence, 500 g ai/ha, visual rating after 13 to 15 days, scale 0 (no effect) to 100 (complete control)
[17] = Preemergence, 500 g ai/ha, scale 0 to 100
[18] = preemergence, 125 g ai/ha, 0 to 100 scale, 0 is no effect, 100 is complete control
[19] = Postemergence, 125 g ai/ha, scale 0 (no effect) to 100 (complete control)
[20] = 125 g ai/ha, 0 = no effect, 100 = complete control, preemergence
[21] = 500 g ai/ha, visual rating 0-100, 0 no effect, 100 complete control, preemergence
[22] = postemergence, 125 g ai/ha, visual rating, scale 0 (no effect) to 100 (complete control)
[23] = postemergence, 500 g ai/ha, visual rating, scale 0 (no effect) to 100 (complete control)
[24] = postemergence, 125 g ai/ha; visual rating, scale 0 (no effect) to 100 (complete control)
[25] = 500 g ai/ha, visual rating, 0 = no effect, 100 = complete control, preemergence
[26] = postemergence, 500 g ai/ha, scale 0 to 100, 0 is no effect, 100 is complete control
[27] = postemergence, 500 g ai/ha; scale 0 to 100, 0 is no effect, 100 is complete control
[28] = 125 g ai/ha, 0 is no effect, 100 is complete control, preemergence
[29] = 125 g ai/ha, visual rating, scale 0 (no effect) to 100 (complete control), postemergence

C=Cn1nc(C(C)(C)C)cc1C(=O)Nc1cccc(C(=O)N(CC)CC)c1 [Compound 34]
Plant response rating, Surinam Grass [1, 16]: 50 | Surinam Grass plant response rating [1, 17]: 80 | Plant response rating, Surinam Grass [1, 18]: 20 | Cocklebur plant response rating [2, 19]: 40 | Plant response rating, Cocklebur [2, 16]: 90 | Cocklebur plant response rating [2, 17]: 10 | Corn plant response rating [3, 17]: 0 | Foxtail, Giant plant response rating [4, 19]: 30 | Plant response rating, Foxtail, Giant [4, 16]: 30 | Foxtail, Giant plant response rating [4, 17]: 90 | Plant response rating, Foxtail, Giant [4, 18]: 30 | Lambsquarters plant response rating [5, 19]: 80 | Plant response rating, Lambsquarters [5, 16]: 90 | Lambsquarters plant response rating [5, 17]: 100 | Plant response rating, Lambsquarters [5, 18]: 80 | Morningglory plant response rating [6, 17]: 20 | Plant response rating, Morningglory [6, 18]: 0 | Plant response rating, Pigweed [7, 16]: 90 | Pigweed plant response rating [7, 17]: 100 | Plant response rating, Pigweed [7, 18]: 100 | Plant response rating, Velvetleaf [8, 16]: 50 | Velvetleaf plant response rating [8, 17]: 60 | Plant response rating, Velvetleaf [8, 18]: 20 | Blackgrass plant response rating [9, 19]: 10 | Plant response rating, Blackgrass [9, 16]: 20 | Plant response rating, Wheat ([10]; Postemergence, 500 g ai/ha; visual rating after 13 to 15 days, scale 0 (no effect) to 100 (complete control)): 30 | Oat, Wild plant response rating [11, 19]: 10 | Plant response rating, Oat, Wild [11, 16]: 10 | Rice plant response rating ([12]; visual rating, 13 to 15 days): 50 | Sedge, Umbrella plant response rating ([13]; visual rating, 13 to 15 days): 80 | Ducksalad plant response rating ([14]; visual rating, 13 to 15 days): 80 | Barnyardgrass plant response rating ([15]; visual rating, 13 to 15 days): 80

CCc1nc(C(C)(C)C)sc1C(=O)Nc1cccc(C(=O)N(CC)CC)c1 [Compound 205]
Surinam Grass plant response rating (0 to 100 scale) [1, 20]: 20 | Plant response rating, Surinam Grass [1, 21]: 80 | Surinam Grass plant response rating [1, 22]: 20 | Surinam Grass plant response rating [1, 23]: 20 | Cocklebur plant response rating (0 to 100 scale) [2, 20]: 10 | Plant response rating, Cocklebur [2, 21]: 20 | Cocklebur plant response rating [2, 22]: 40 | Cocklebur plant response rating [2, 23]: 80 | Corn plant response rating (0 to 100 scale) [3, 20]: 10 | Plant response rating, Corn [3, 21]: 40 | Corn plant response rating [3, 22]: 20 | Corn plant response rating [3, 23]: 20 | Foxtail, Giant plant response rating (0 to 100 scale) [4, 20]: 50 | Plant response rating, Foxtail, Giant [4, 21]: 100 | Foxtail, Giant plant response rating [4, 22]: 20 | Foxtail, Giant plant response rating [4, 23]: 30 | Lambsquarters plant response rating (0 to 100 scale) [5, 20]: 80 | Plant response rating, Lambsquarters [5, 21]: 100 | Lambsquarters plant response rating [5, 22]: 60 | Lambsquarters plant response rating [5, 23]: 70 | Morningglory plant response rating (0 to 100 scale) [6, 20]: 0 | Plant response rating, Morningglory [6, 21]: 30 | Morningglory plant response rating [6, 22]: 30 | Morningglory plant response rating [6, 23]: 50 | Pigweed plant response rating (0 to 100 scale) [7, 20]: 100 | Plant response rating, Pigweed [7, 21]: 100 | Pigweed plant response rating [7, 22]: 40 | Pigweed plant response rating [7, 23]: 50 | Velvetleaf plant response rating (0 to 100 scale) [8, 20]: 30 | Plant response rating, Velvetleaf [8, 21]: 80 | Velvetleaf plant response rating [8, 22]: 20 | Velvetleaf plant response rating [8, 23]: 40 | Blackgrass plant response rating [9, 22]: 0 | Blackgrass plant response rating [9, 23]: 20 | Wheat plant response rating [10, 24]: 10 | Wheat plant response rating ([10]; postemergence, 500 g ai/ha; visual rating, scale 0 (no effect) to 100 (complete control)): 20 | Oat, Wild plant response rating [11, 22]: 20 | Oat, Wild plant response rating [11, 23]: 30 | Rice plant response rating ([12]; visual rating, 13 to 15 days): 60 | Sedge, Umbrella plant response rating ([13]; visual rating, 13 to 15 days): 60 | Ducksalad plant response rating ([14]; visual rating, 13 to 15 days): 50 | Barnyardgrass plant response rating ([15]; visual rating, 13 to 15 days): 70

CCNC(=O)c1ccc(F)c(NC(=O)C2CC(C(C)(C)C)=NN2CC)c1 (racemic) [Compound 269]
Surinam Grass plant response rating (0 to 100 scale) [1, 20]: 50 | Plant response rating, Surinam Grass [1, 25]: 100 | Surinam Grass plant response rating [1, 22]: 10 | Surinam Grass plant response rating [1, 26]: 20 | Cocklebur plant response rating (0 to 100 scale) [2, 20]: 20 | Plant response rating, Cocklebur [2, 25]: 70 | Cocklebur plant response rating [2, 22]: 20 | Cocklebur plant response rating [2, 26]: 50 | Corn plant response rating (0 to 100 scale) [3, 20]: 60 | Plant response rating, Corn [3, 25]: 80 | Corn plant response rating [3, 22]: 10 | Corn plant response rating [3, 26]: 30 | Foxtail, Giant plant response rating (0 to 100 scale) [4, 20]: 80 | Plant response rating, Foxtail, Giant [4, 25]: 100 | Foxtail, Giant plant response rating [4, 22]: 30 | Foxtail, Giant plant response rating [4, 26]: 30 | Lambsquarters plant response rating (0 to 100 scale) [5, 20]: 100 | Plant response rating, Lambsquarters [5, 25]: 100 | Lambsquarters plant response rating [5, 22]: 50 | Lambsquarters plant response rating [5, 26]: 70 | Morningglory plant response rating (0 to 100 scale) [6, 20]: 10 | Plant response rating, Morningglory [6, 25]: 20 | Morningglory plant response rating [6, 22]: 20 | Morningglory plant response rating [6, 26]: 40 | Pigweed plant response rating (0 to 100 scale) [7, 20]: 100 | Plant response rating, Pigweed [7, 25]: 100 | Pigweed plant response rating [7, 22]: 60 | Pigweed plant response rating [7, 26]: 60 | Velvetleaf plant response rating (0 to 100 scale) [8, 20]: 60 | Plant response rating, Velvetleaf [8, 25]: 100 | Velvetleaf plant response rating [8, 22]: 10 | Velvetleaf plant response rating [8, 26]: 20 | Blackgrass plant response rating [9, 22]: 20 | Blackgrass plant response rating [9, 26]: 50 | Wheat plant response rating [10, 24]: 20 | Wheat plant response rating [10, 27]: 30 | Oat, Wild plant response rating [11, 22]: 20 | Oat, Wild plant response rating [11, 26]: 30 | Rice plant response rating [12]: 80 | Sedge, Umbrella plant response rating [13]: 80 | Ducksalad plant response rating [14]: 80 | Barnyardgrass plant response rating [15]: 90

C=CCNC(=O)c1cccc(NC(=O)c2cc(C(C)(C)C)nn2C)n1 [Compound 318]
Plant response rating (0 to 100 scale), Surinam Grass [1, 28]: 0 | Surinam Grass plant response rating [1, 29]: 10 | Plant response rating, Surinam Grass [1, 25]: 40 | Surinam Grass plant response rating [1, 26]: 20 | Plant response rating (0 to 100 scale), Cocklebur [2, 28]: 0 | Cocklebur plant response rating [2, 29]: 10 | Plant response rating, Cocklebur [2, 25]: 0 | Cocklebur plant response rating [2, 26]: 80 | Plant response rating (0 to 100 scale), Corn [3, 28]: 0 | Corn plant response rating [3, 29]: 20 | Plant response rating, Corn [3, 25]: 0 | Corn plant response rating [3, 26]: 20 | Plant response rating (0 to 100 scale), Foxtail, Giant [4, 28]: 0 | Foxtail, Giant plant response rating [4, 29]: 10 | Plant response rating, Foxtail, Giant [4, 25]: 80 | Foxtail, Giant plant response rating [4, 26]: 10 | Plant response rating (0 to 100 scale), Lambsquarters [5, 28]: 90 | Lambsquarters plant response rating [5, 29]: 80 | Plant response rating, Lambsquarters [5, 25]: 100 | Lambsquarters plant response rating [5, 26]: 80 | Plant response rating (0 to 100 scale), Morningglory [6, 28]: 0 | Morningglory plant response rating [6, 29]: 0 | Plant response rating, Morningglory [6, 25]: 30 | Morningglory plant response rating [6, 26]: 80 | Plant response rating (0 to 100 scale), Pigweed [7, 28]: 90 | Pigweed plant response rating [7, 29]: 70 | Plant response rating, Pigweed [7, 25]: 100 | Pigweed plant response rating [7, 26]: 100 | Plant response rating (0 to 100 scale), Velvetleaf [8, 28]: 20 | Velvetleaf plant response rating [8, 29]: 40 | Velvetleaf plant response rating [8, 26]: 80 | Blackgrass plant response rating [9, 29]: 10 | Blackgrass plant response rating [9, 26]: 10 | Wheat plant response rating ([10]; 125 g ai/ha; visual rating, scale 0 (no effect) to 100 (complete control); postemergence): 0 | Wheat plant response rating [10, 27]: 10 | Oat, Wild plant response rating [11, 29]: 0 | Oat, Wild plant response rating [11, 26]: 30 | Rice plant response rating [12]: 40 | Sedge, Umbrella plant response rating [13]: 80 | Ducksalad plant response rating [14]: 70 | Barnyardgrass plant response rating [15]: 70
